Measurements: article PMC5481443, “High-throughput Screening of Small Molecule Inhibitors of the Streptococcus Quorum-sensing Signal Pathway” (Scientific Reports, 2017)
pEC50, pIC50, pKi: −log10 of the molar value.

Key:
[1] = target: MuPEP1 (S. mutans PEP) (Streptococcus mutans, UniProt Q8DW05); experiment: MuPEP1 peptidase inhibition assay with fluorogenic substrate tCComC-AFC; format: biochemical
Description: This region of ComC is necessary and sufficient for the interaction with PEP[17]. […] Thus, this synthetic peptide was used as a functionally relevant substrate. Assays were performed in black flat-bottom 384-well plates (Greinar, 784900) under ambient conditions. All compounds dissolved in DMSO were predispensed on the plate (100 nL/well) with the final concentration of 20 μM, and then aliquots of 5 μL of 0.5 μM MuPEP1 (final concentration) in 50 mM Tris-HCl, 150 mM ammonium sulfate, and 0.02% Triton X-100 were dispensed to each well by using a Multidrop Combi dispenser (Thermo Fisher Scientific, Vantaa, Finland). […] These reaction mixtures contained DMSO at a 3% final concentration. Each 384-well plate contained 16 negative control wells (lacking MuPEP1) and 16 positive control wells (100 nL of DMSO replacing 100 nL of compound in DMSO). After 3-h incubation, the fluorescence intensity of the released AFC was measured by using a microplate reader, PHERAstar (BMG Labtech, Offenburg, Germany), with excitation at 380 nm and emission at 490 nm.
Fifteen microliters of 3.3 mM of phosphoric acid was added to 8 μL of the reaction mixtures from the screening. […] The fluorescence was detected by using excitation at 360 nm and emission at 470 nm.
Dose-dependent inhibitory activities of compounds against MuPEP1 were examined in quadruplicate. […]

[2] = target: peptidase domain of S. pneumoniae BlpA (Streptococcus pneumoniae, UniProt G3ECC8); experiment: BlpA peptidase domain assay with tCComC-AFC
Chain of peptidase domain of S. pneumoniae BlpA (G3ECC8 entry or part of it): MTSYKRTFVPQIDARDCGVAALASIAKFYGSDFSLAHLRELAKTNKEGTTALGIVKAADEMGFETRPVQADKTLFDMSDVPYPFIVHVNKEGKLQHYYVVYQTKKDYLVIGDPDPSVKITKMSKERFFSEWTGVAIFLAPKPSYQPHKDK
Description: (§1) The PEP activity was assayed in a 110-μL reaction mixture containing 50 mM Tris-HCl, 150 mM ammonium sulfate, 0.02% Triton X-100, and various concentrations of the substrate. The reaction was started by adding the PEP solution to a final concentration of 0.25–2.0 μM. The reaction was performed at 25 °C, 50 μL of the reaction mixture was transferred to a white 96-well microtiter plate (Thermo Scientific 236105), and the fluorescence intensity was immediately measured by using a Promega GloMax®-Multi plus Detection System (Promega, Madison, WI) with excitation at 405 nm and emission at 495–505 nm.
(§2) Supplementary Figure S1: v/[E] versus substrate concentration plots for the PEP […]
(§3) The data were fitted with a saturation curve with the
(§4) Tris-HCl, 150 mM ammonium sulfate, and Triton X-100, pH 7.0, at 25 °C. The concentrations of Triton X-100 were 0.01% for MuPEP1 and 0.02% for S. pneumoniae PEP. The concentrations of PEP or the peptidase domain of BlpA were […]
(1 picture or pasted object on this page, not shown here) […]
(§5) domain of S. pneumoniae BlpA with Compound 1. […]
(§6) was digested with 0.5 μM PEP or the peptidase domain of BlpA in the presence of […]

[3] = test system: S. mutans biofilm formation; experiment: Biofilm formation assay (crystal violet staining; tilted tube culture); format: cell-based, S. mutans strain UA159
Description: After 18 h of standing incubation at 37 °C in 5% CO2 under anaerobic condition in an AnaeroPack system (Mitsubishi Gas Chemical, Tokyo, Japan), the cultured medium was removed, and adherent bacteria were stained with 200 μL of 0.005% crystal violet for 30 min. […] The dye was extracted into 200 μL of 60% ethanol, and the biofilm mass was estimated by using a microplate reader (Bio-Rad, Model 680XR) (Bio-Rad, Hercules, CA) to measure the absorbance at 595 nm. […]

[4] = target: S. oralis PEP (Streptococcus oralis, UniProt A0A1X1IJV1); experiment: S. oralis PEP peptidase assay with tCComC-AFC
Chain of S. oralis PEP (A0A1X1IJV1 entry or part of it): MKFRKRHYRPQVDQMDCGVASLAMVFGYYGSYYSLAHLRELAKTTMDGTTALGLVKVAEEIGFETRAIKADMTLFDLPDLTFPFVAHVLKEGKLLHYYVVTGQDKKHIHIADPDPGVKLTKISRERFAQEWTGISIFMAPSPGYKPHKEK
Description: as §1
Supplementary Figure S1: v/[E] versus substrate concentration plots for the PEP
as §3
Tris-HCl, 150 mM ammonium sulfate, and Triton X-100, pH 7.0, at 25 °C. The
concentrations of Triton X-100 were 0.01% for MuPEP1 and 0.02% for S.
pneumoniae PEP. […]

[5] = test system: S. mutans competence development; experiment: Transformation assay (competence development); format: cell-based; settings: 10 μM compound
Description: Four microliters of the overnight culture of S. mutans in BHI medium was inoculated to 0.4 mL of CDM in the absence or presence of 10 µM Compound 1. After 7.5 h incubation at 37 °C in 5% CO2 under anaerobic condition in the AnaeroPack system, 1 μg of plasmid pSET2 was added to the culture. After additional 3-h growth, the cultures were chilled on ice, and serial dilutions of the cultures were plated onto BHI agar plates (for enumeration of total CFU) and onto BHI agar plates containing 1 mg/mL spectinomycin (for enumeration of transformants). Transformation efficiency was determined after 24–48 h incubation at 37 °C in 5% CO2 under anaerobic condition.

[6] = target: MuPEP1 (Streptococcus mutans, UniProt Q8DW05); experiment: Kinetic analysis of MuPEP1 peptidase activity
Chain of MuPEP1 (Q8DW05 entry or part of it): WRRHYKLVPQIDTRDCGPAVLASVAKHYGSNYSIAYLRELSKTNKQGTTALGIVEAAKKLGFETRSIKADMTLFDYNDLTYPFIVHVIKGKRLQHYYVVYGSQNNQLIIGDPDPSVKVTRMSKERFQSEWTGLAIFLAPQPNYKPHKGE
Description: as §1, §2, §3, §4
(1 picture or pasted object on this page, not shown here)

[7] = target: T1, S. pneumoniae PEP (Streptococcus pneumoniae serotype 4, UniProt Q03727); experiment: S. pneumoniae PEP peptidase assay with tCComC-AFC; format: biochemical
T1 construct: His-tag; made in house; host or cells: E. coli BL21 (DE3) pLysS
T1 sequence (Q03727 11-138): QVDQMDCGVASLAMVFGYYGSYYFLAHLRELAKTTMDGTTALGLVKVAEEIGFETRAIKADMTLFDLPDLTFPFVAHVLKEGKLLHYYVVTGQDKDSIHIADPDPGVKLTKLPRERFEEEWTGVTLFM
Description: as §1, with “nm. […]” for “nm.”
as §4, §5, §6

[8] = test system: nlmA and nlmC gene expression of S. mutans; experiment: Real-time quantitative RT-PCR of bacteriocin genes; format: cell-based; settings: 25 μM compound
Description: Six microliters of the overnight culture of S. mutans in BHI medium was inoculated into 0.4 mL of CDM. After 17 h of incubation at 37 °C in 5% CO2 under anaerobic condition in an AnaeroPack system, cells were collected by centrifugation and treated with labiase (Cosmo Bio, Tokyo, Japan), and total RNA was extracted and purified by using a PureLink™ RNA Mini kit (Ambion, Austin, TX). Purified RNA was reverse transcribed to cDNA by using SuperScript® VILO™ cDNA Synthesis kit. Quantitative real-time PCR was performed by using a Power SYBR® Green PCR Master Mix (Applied Biosystems, Foster City, CA) on a StepOnePlus Real–Time PCR system (Applied Biosystems). The gene expression levels were calculated by using the ΔΔ threshold cycle (ΔΔC T) method. The 16S rRNA gene of S. mutans was used as the housekeeping reference. The oligonucleotides to amplify each gene were as follows: 5′-[…]-3′ and 5′-[…]-3′ for 16S rRNA, 5′-[…]-3′ and 5′-[…]-3′ for nlmA (SMU. 150), and 5′-[…]-3′ and 5′-[…]-3′ for nlmC (SMU. 1914C). All experiments using commercially available kits were performed according to the manufacturer’s instructions.

[9] = test system: S. mutans; experiment: Bacterial growth / viable cell count; format: cell-based, S. mutans strain UA159; settings: 25 μM compound, tube culture
Description: […] After 18 h of standing incubation at 37 °C in 5% CO2 under anaerobic condition in an AnaeroPack system (Mitsubishi Gas Chemical, Tokyo, Japan), the cultured medium was removed, and adherent bacteria were stained with 200 μL of 0.005% crystal violet for 30 min. The wells were washed twice with 300 μL of distilled water and then air dried. The dye was extracted into 200 μL of 60% ethanol, and the biofilm mass was estimated by using a microplate reader (Bio-Rad, Model 680XR) (Bio-Rad, Hercules, CA) to measure the absorbance at 595 nm. The bacterial growth was determined by measuring the turbidity (absorbance at 595 nm) of parallel wells.
For the count of viable cells shown in Fig. 2B, part of the culture was serially diluted and spread onto the BHI plate, and the plates were incubated overnight at 37 °C in 5% CO2 under anaerobic condition.

[10] = test system: CC(C)C[C@H](NC(=O)[C@H](CCC(=O)O)NC(=O)[C@H](CCCCN)NC(=O)[C@H](CCC(=O)O)NC(=O)[C@H](CC(N)=O)NC(=O)[C@H](CC(C)C)NC(=O)[C@@H](NC(=O)[C@@H]1CCCN1C(=O)[C@H](Cc1ccccc1)NC(=O)[C@H](CCC(N)=O)NC(=O)[C@H](C)N)C(C)C)C(=O)N[C@@H](CCCCN)C(=O)N[C@@H](CCC(=O)O)C(=O)N[C@H](C(=O)N[C@@H](CC(C)C)C(=O)NCC(=O)NCC(=O)Nc1ccc2c(C(F)(F)F)cc(=O)oc2c1)C(C)C; experiment: purified protein, by the assay type
[11] = other: MuPEP1, non-competitive inhibition model fit, Fig. 2E, pH 7.0, 25.0 °C
[12] = other: saturation curve, pH 7.0, 25 °C, Fig. S1

Chain of MuPEP1 (S. mutans PEP) (Q8DW05 entry or part of it): as the sequence (Q8DW05 entry or part of it) above

CCCNC(=O)OCC1CC2CCN1CC2C#Cc1ccccc1 (centres unmarked) [Compound 1]
pIC50 [1]: 4.42
pIC50 [2]: 4.80
Biofilm in standing culture in tilted round-bottom culture tubes ([3]; 25 μM compound, overnight standing culture): easily detached and dispersed after gentle swirling
pEC50 ([3]; Streptococcus mutans, S. mutans, crystal violet staining, 96-well plate, 18 h, read-out: EC50 of suppression of biofilm formation): 5.30
pIC50 [4]: 4.60
Transformation efficiency relative to absence of compound [5]: 35%
pKi [6]: 4.42
Inhibition mechanism ([6]; Vmax decreased, Km unaffected): non-competitively inhibited
pIC50 [7]: 4.54
Relative gene expression level of nlmA [8]: 18%
Relative gene expression level of nlmC [8]: 23%
Antimicrobial activity against S. mutans [9]: did not show antimicrobial activity

MuPEP1 (Streptococcus mutans UA159)
Km [10, 11]: 43 µM
kcat [10, 11]: 0.00333 s⁻¹
Km [10, 12]: 46 µM
kcat [10, 12]: 0.00317 s⁻¹

S. oralis PEP (Streptococcus oralis subsp. oralis)
Km [10, 12]: 8.2 µM
kcat [10, 12]: 0.00123 s⁻¹

peptidase domain of S. pneumoniae BlpA (Streptococcus pneumoniae)
Km [10, 12]: 18 µM
kcat [10, 12]: 0.011 s⁻¹
